Here are results for four compounds from paper PMC10786919, “Design-rules for stapled peptides with in vivo activity and their application to Mdm2/X antagonists” (Nature Communications, 2024).

For orientation: EC50 means the concentration needed to bring the measured effect to its halfway point. A lower EC50 goes with greater potency. What is called logD is the decadic logarithm of the distribution of all forms, ionised or not, between an organic phase and buffer at a given pH. Higher therefore signals a more lipophilic compound.

A short description of data set [1]: Lactate dehydrogenase (LDH) release assay. Conditions: LDH: Cytotoxicity assay: EC50. The class given is cell-based. The method, boiled down:
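Membrane damage measured as lactate dehydrogenase release (CytoTox-ONE kit) from p53-responsive β-lactamase reporter HCT116 cells plated at 8000 per well. Final DMSO 0.5%; geometric mean reported from a minimum of three biological replicates.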

The nature of data set [2]: Solubility assay (kinetic solubility, PBS pH 7). Format: physicochemical. Conditions: for solubility kinetic: pH 7, aqueous buffer, kinetic from dmso stock, read-out: Solubility. The procedure, abridged:
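Values derive from peak-area ratios of sample versus a 100 µM standard, scaled by that standard's concentration.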

Data set [3] deals with Ca Ski cell line. As to conditions: 72 h. The method, boiled down:
(§1)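 Compound dilution series (10 points, 3-fold, 10 mM top stock in DMSO) tested on overnight-plated Ca Ski cells in RPMI1640/10% FBS and on blasticidin-selected p53RE-bla HCT-116 cells in McCoy's 5A; read-out was CellTiter-Glo 2.0 luminescence after room-temperature equilibration.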

A short description of data set [4]: in vitro. As to conditions: Nanoclick permeability assay EC50. The method, boiled down:
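Azido-peptide permeability was read as loss of NanoBRET signal (donor 450 nm, acceptor 610 nm) after adding NanoBret618-azide at 10 μM final.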

Data set [5] can be described thus: EPSA. The class given is physicochemical. Conditions: EPSA.
Data set [6] in a line: Experimental LogD (partition coefficient). As to conditions: for logD: not stated, Partition Coeff LogD.
Data set [7] has as its system CellSensor p53RE-bla HCT-116 Cell Line. Conditions: 72 h. The method, boiled down: as §1

≈ marks a conversion by molar mass, not a printed value. Read-outs that look alike come from different tables or passages of the source. Positions of bridges follow the written chain, without caps; N, C: chain ends. Non-standard residues stand in square brackets, D forms with d. Residues, ends and D or L forms follow the SMILES beside them. Lys(N3) = [N-]=[N+]=NCCCC[C@H](N)C(=O)O; R8 = C=CCCCCCC[C@@](C)(N)C(=O)O; Cba = N[C@@H](CC1CCC1)C(=O)O; S5 = C=CCCC[C@](C)(N)C(=O)O; βAla = NCCC(=O)O

With `CC(=O)N[C@@H](CCCCN=[N+]=[N-])C(=O)NCCC(=O)N[C@@H](CC(C)C)C(=O)N[C@H](C(=O)N[C@@H](CCC(=O)O)C(=O)N[C@]1(C)CCCCCCC=CCCC[C@@](C)(C(=O)N[C@@H](CO)C(=O)N[C@@H](C)C(=O)N[C@@H](C)C(N)=O)NC(=O)[C@H](CC2CCC2)NC(=O)[C@H](CCC(N)=O)NC(=O)[C@H](C)NC(=O)[C@H](Cc2c[nH]c3ccccc23)NC(=O)[C@H](Cc2ccc(O)cc2)NC(=O)[C@H](CCC(=O)O)NC1=O)[C@@H](C)O` [MP-843], the EC50 in data set [1] was greater than 50.7 µM; in data set [3] it was greater than 49.8 µM. The solubility kinetic in data set [2] (pH 7, PBS) is 151 µM (≈ 295 µg/mL). The cell entry EC50 in data set [4] was determined as 0.597 µM. In data set [5], this compound registered an EPSA of 208 A^2. In data set [6], this compound displayed a logD of 1.78.

Take `CC(=O)N[C@@H](CCCCN=[N+]=[N-])C(=O)NCCC(=O)N[C@@H](CC(C)C)C(=O)N[C@H](C(=O)N[C@@H](Cc1ccccc1)C(=O)N[C@]1(C)CCCCCCC=CCCC[C@@](C)(C(=O)N[C@@H](C)C(=O)N[C@@H](C)C(=O)N[C@@H](Cc2ccccc2)C(=O)N[C@@H](C)C(=O)N[C@@H](C)C(=O)N[C@H](Cc2ccccc2)C(N)=O)NC(=O)[C@H](CC2CCC2)NC(=O)[C@H](CCC(N)=O)NC(=O)[C@H](C)NC(=O)[C@H](Cc2c[nH]c3ccccc23)NC(=O)[C@H](Cc2ccc(O)cc2)NC(=O)[C@H](CCC(=O)O)NC1=O)[C@@H](C)O` [MP-063] (Ac-[Lys(N3)][βAla]LTF[R8]EYWAQ[Cba][S5]AAFAA[dF]-NH2; staple 6-13): the EC50 in data set [1] is greater than 50.7 µM; in data set [3] it was greater than 49.8 µM; in data set [7], 2.78 µM. The solubility kinetic in data set [2] (pH 7, PBS) worked out at 9 µM (≈ 20.9 µg/mL). Further, the cell entry EC50 in data set [4] was 0.394 µM. For the same compound, in data set [5], the EPSA stood at 199 A^2.

Consider `CC(=O)N[C@@H](CCCCN=[N+]=[N-])C(=O)NCCC(=O)N[C@@H](CC(C)C)C(=O)N[C@H](C(=O)N[C@@H](Cc1ccccc1)C(=O)N[C@]1(C)CCCCCCC=CCCC[C@@](C)(C(=O)N[C@@H](CO)C(=O)N[C@@H](C)C(=O)N[C@@H](C)C(N)=O)NC(=O)[C@H](CC2CCC2)NC(=O)[C@H](CCC(N)=O)NC(=O)[C@H](C)NC(=O)[C@H](CCC(=O)O)NC(=O)[C@H](Cc2ccc(O)cc2)NC(=O)[C@H](CCC(=O)O)NC1=O)[C@@H](C)O` [MP-956], for which the values for the EC50 in data set [1] and in data set [3] were greater than 50.7 µM and greater than 49.8 µM, respectively. Moreover, the solubility kinetic in data set [2] (pH 7, PBS) came out at 175 µM (≈ 335 µg/mL). Further, the cell entry EC50 in data set [4] is 9.22 µM. For the same compound, the EPSA in data set [5] was 198 A^2. The compound further displayed a logD in data set [6] of 1.7.

For the compound `CC(=O)N[C@@H](CCCCN=[N+]=[N-])C(=O)NCCC(=O)N[C@@H](CC(C)C)C(=O)N[C@H](C(=O)N[C@@H](Cc1ccccc1)C(=O)N[C@]1(C)CCCCCCC=CCCC[C@@](C)(C(=O)N[C@@H](C)C(=O)N[C@@H](C)C(=O)N[C@@H](C)C(=O)N[C@@H](C)C(=O)N[C@@H](C)C(=O)N[C@@H](Cc2ccccc2)C(N)=O)NC(=O)[C@H](CC2CCC2)NC(=O)[C@H](CCC(N)=O)NC(=O)[C@H](C)NC(=O)[C@H](Cc2c[nH]c3ccccc23)NC(=O)[C@H](Cc2ccc(O)cc2)NC(=O)[C@H](CCC(=O)O)NC1=O)[C@@H](C)O` [MP-060] (Ac-[Lys(N3)][βAla]LTF[R8]EYWAQ[Cba][S5]AAAAAF-NH2; staple 6-13), the EC50 was greater than 50.7 µM in data set [1] and greater than 49.8 µM in data set [3]. The Solubility entry in data set [2] was “P.B”; in data set [2] (pH 7, PBS) it was “Poorly Behaved”. Also, in data set [4], the cell entry EC50 was 1.09 µM. In data set [5], the EPSA was determined as 198 A^2. In addition, in data set [6], the “Partition Coeff LogD” value is “Poorly Behaved”.
